Results reported in article PMC9329436, “Optimization of the 4-anilinoquin(az)oline scaffold as epidermal growth factor receptor (EGFR) inhibitors for chordoma utilizing a toxicology profiling assay platform” (Scientific Reports, 2022).
Read-outs that look alike come from different tables or passages of the source.

What was measured:
Format in all cases: biochemical
[1] = molecular target: T1, 320 wild-type protein kinases (Homo sapiens, UniProt Q9UKI8); details: kinase TLK1, singlicate
T1 sequence (Q9UKI8 1-766): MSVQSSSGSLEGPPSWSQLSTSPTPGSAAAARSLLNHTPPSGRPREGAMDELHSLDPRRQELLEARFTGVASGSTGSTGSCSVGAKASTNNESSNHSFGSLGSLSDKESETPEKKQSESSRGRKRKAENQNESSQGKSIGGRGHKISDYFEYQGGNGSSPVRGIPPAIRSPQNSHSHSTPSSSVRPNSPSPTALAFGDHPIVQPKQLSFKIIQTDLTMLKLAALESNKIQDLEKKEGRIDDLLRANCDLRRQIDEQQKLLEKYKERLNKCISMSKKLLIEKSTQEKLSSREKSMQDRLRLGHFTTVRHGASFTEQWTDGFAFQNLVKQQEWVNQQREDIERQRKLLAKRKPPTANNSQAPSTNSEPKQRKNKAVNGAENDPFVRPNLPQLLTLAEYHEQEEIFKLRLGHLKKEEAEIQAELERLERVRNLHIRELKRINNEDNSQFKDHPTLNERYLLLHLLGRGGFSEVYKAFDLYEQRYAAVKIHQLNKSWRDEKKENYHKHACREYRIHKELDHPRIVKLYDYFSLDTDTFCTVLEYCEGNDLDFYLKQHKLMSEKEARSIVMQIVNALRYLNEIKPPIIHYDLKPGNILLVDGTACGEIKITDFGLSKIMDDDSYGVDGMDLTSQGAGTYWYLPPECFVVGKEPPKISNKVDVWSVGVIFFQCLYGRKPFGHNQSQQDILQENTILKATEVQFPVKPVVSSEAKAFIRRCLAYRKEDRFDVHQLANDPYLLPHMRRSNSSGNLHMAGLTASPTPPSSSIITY
Text: (§1) Table S4. Profiling of two compounds at two concentrations against 320 wild-type protein kinases; singlicate measurement; Residual activities (% of control).

[2] = molecular target: 320 wild-type protein kinases (Homo sapiens, UniProt Q9BYP7); details: kinase WNK3, singlicate
320 wild-type protein kinases (Homo sapiens, UniProt Q9BYP7), sequence (Q9BYP7 whole entry): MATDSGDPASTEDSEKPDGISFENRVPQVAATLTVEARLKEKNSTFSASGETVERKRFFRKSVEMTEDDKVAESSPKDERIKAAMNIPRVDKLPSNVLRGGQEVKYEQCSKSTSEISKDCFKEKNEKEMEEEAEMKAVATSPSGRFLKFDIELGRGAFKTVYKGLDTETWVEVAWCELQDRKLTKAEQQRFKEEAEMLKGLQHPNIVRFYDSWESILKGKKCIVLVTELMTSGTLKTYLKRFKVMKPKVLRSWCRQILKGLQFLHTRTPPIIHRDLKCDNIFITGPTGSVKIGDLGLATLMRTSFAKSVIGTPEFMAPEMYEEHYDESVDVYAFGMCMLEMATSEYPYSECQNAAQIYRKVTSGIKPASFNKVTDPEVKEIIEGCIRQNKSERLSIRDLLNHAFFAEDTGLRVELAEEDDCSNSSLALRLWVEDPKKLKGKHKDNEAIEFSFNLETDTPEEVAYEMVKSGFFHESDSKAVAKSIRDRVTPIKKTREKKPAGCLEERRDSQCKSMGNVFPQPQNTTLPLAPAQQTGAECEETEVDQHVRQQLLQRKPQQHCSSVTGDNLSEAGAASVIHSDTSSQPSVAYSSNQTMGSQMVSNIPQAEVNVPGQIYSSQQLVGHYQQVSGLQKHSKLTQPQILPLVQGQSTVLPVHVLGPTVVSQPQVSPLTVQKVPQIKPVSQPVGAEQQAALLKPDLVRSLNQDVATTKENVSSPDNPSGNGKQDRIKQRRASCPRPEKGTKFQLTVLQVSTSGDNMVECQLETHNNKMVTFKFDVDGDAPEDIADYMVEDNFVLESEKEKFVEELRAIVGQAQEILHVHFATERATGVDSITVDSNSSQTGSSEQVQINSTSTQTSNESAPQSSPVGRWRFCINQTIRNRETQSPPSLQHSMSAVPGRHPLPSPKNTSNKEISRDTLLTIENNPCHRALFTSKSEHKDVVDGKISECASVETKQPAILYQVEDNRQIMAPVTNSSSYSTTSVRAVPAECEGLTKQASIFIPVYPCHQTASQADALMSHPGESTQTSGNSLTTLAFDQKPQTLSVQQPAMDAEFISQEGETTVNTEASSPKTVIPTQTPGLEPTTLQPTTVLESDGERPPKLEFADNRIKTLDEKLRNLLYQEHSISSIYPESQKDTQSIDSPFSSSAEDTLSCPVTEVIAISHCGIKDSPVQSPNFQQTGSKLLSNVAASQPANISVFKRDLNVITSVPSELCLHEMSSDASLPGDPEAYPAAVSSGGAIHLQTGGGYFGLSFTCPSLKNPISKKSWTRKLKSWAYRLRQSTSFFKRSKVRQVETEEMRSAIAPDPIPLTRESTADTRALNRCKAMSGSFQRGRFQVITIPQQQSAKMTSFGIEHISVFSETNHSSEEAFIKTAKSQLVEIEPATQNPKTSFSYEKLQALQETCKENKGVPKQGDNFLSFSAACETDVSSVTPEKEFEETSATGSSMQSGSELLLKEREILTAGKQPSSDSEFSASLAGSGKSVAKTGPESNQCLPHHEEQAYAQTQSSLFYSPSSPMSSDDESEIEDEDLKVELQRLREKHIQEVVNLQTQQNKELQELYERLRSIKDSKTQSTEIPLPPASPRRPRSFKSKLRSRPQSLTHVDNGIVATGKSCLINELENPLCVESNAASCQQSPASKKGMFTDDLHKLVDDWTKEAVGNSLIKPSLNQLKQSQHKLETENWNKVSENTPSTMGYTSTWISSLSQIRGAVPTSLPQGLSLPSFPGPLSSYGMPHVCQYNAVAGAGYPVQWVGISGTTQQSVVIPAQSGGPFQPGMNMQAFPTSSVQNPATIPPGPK
Text: as §1

[3] = molecular target: T2, 320 wild-type protein kinases (Homo sapiens, UniProt Q06418); details: kinase TYRO3, singlicate
T2 sequence (Q06418 41-890): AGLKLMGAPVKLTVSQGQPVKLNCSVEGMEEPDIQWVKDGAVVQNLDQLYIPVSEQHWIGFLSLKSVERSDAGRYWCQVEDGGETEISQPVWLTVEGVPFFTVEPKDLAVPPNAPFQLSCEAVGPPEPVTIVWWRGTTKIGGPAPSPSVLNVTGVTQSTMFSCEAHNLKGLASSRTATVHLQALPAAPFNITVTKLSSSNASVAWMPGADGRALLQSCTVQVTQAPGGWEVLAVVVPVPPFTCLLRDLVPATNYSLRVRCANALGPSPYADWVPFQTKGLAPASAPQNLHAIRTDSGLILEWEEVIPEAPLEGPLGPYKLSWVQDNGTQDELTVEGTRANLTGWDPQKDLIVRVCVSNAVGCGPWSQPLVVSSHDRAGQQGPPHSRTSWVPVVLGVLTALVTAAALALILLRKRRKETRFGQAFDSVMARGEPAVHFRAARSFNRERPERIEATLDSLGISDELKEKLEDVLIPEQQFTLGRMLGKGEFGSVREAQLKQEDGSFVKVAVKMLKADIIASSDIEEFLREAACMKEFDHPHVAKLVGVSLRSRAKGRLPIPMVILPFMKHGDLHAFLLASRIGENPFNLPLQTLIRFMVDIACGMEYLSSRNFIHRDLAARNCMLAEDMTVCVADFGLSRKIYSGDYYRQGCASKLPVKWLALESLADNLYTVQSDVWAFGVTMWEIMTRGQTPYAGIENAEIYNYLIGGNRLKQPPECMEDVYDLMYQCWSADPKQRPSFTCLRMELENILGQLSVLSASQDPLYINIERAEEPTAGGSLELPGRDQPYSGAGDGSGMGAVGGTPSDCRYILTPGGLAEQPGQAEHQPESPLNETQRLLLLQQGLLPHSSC
Text: as §1

[4] = molecular target: 320 wild-type protein kinases (Homo sapiens, UniProt Q16513); details: singlicate
320 wild-type protein kinases (Homo sapiens, UniProt Q16513), sequence (Q16513 whole entry): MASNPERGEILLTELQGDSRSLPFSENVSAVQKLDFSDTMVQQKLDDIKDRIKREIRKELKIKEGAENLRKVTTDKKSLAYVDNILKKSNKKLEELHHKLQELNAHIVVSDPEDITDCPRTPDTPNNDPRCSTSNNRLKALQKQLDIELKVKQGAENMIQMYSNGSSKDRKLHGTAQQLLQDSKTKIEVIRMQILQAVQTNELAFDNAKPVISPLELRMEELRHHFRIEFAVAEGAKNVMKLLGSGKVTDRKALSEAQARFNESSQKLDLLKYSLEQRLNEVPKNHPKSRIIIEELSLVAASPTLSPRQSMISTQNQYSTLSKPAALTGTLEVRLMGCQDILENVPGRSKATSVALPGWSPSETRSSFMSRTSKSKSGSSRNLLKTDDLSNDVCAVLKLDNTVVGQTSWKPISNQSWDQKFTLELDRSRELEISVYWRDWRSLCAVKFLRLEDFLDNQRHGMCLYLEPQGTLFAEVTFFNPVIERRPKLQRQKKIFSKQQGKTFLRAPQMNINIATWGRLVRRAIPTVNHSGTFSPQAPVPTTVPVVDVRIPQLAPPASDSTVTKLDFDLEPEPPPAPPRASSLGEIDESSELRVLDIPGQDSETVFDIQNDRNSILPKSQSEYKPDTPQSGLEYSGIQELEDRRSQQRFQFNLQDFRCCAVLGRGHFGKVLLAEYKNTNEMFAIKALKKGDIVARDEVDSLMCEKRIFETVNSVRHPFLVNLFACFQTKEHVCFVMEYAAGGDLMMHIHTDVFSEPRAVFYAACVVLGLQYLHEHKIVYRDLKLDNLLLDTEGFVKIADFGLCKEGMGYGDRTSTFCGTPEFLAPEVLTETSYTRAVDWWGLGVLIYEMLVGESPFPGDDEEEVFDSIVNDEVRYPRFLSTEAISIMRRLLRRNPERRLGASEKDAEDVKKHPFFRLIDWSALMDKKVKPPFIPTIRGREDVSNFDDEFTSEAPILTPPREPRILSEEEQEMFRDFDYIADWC
Text: as §1

[5] = molecular target: 320 wild-type protein kinases (Homo sapiens, UniProt P35916); details: kinase VEGF-R3, singlicate
320 wild-type protein kinases (Homo sapiens, UniProt P35916), sequence (P35916 25-1363): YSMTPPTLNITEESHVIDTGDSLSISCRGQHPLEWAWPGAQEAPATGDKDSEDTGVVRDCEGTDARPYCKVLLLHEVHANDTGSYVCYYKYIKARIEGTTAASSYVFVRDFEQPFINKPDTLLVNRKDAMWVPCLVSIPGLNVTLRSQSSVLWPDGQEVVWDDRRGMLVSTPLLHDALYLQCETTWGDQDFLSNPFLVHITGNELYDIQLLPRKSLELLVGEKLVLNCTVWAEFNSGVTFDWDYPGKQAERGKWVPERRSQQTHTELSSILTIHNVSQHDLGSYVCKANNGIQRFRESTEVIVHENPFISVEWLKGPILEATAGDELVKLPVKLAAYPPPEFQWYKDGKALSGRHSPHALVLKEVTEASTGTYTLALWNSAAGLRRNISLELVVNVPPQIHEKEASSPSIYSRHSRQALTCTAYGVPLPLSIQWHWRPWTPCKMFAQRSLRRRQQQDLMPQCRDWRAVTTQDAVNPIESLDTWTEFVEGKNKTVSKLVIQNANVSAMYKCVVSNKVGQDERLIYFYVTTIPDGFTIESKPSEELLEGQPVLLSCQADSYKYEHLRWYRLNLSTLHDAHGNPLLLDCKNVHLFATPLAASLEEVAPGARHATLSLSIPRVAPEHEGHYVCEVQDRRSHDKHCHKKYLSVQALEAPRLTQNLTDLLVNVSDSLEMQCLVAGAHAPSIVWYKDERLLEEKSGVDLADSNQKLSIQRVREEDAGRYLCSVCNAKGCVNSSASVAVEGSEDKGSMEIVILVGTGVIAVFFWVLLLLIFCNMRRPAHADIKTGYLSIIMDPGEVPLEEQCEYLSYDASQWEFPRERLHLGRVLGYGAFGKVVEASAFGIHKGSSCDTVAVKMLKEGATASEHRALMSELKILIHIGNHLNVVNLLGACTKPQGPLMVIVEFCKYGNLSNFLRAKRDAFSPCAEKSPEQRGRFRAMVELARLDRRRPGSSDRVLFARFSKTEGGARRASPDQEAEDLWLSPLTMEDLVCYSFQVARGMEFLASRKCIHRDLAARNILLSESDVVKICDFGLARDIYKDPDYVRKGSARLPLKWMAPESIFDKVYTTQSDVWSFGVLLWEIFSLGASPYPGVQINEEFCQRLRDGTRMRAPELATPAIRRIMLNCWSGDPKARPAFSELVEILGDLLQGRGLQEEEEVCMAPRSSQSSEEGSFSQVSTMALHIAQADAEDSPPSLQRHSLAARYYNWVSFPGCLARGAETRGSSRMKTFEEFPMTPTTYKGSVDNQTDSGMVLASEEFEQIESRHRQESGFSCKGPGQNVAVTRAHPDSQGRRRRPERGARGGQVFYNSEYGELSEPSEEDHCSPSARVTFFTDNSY
Text: as §1

[6] = molecular target: 320 wild-type protein kinases (Homo sapiens, UniProt Q15759); details: p38-beta, singlicate
320 wild-type protein kinases (Homo sapiens, UniProt Q15759), sequence (Q15759 whole entry): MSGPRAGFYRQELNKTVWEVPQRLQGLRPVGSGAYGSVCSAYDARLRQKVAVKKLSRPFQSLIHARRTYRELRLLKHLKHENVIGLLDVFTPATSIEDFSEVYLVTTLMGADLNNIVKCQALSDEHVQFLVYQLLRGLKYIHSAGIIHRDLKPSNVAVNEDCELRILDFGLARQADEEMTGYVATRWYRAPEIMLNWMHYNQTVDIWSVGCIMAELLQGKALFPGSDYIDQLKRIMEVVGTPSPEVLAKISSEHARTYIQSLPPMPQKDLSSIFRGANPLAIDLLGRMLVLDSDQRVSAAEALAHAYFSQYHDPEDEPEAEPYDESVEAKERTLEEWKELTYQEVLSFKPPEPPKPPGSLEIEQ
Text: as §1

[7] = molecular target: T3, 320 wild-type protein kinases (Homo sapiens, UniProt Q9HBY8); details: kinase SGK2, singlicate
T3 sequence (Q9HBY8 1-367): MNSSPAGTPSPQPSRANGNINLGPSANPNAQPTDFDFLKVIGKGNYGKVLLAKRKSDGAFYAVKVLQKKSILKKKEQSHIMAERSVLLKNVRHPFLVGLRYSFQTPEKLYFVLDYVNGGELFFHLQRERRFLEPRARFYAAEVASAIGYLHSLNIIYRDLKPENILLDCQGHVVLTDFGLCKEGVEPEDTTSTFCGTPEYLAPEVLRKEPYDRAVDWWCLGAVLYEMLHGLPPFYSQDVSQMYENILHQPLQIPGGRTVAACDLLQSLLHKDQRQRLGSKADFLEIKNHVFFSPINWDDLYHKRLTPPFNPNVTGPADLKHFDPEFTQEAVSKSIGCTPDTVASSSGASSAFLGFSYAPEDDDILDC
Text: as §1

Structure (SMILES)	Residual activity, TLK1 ([1]; assay conc. 1.0E-06 M)	Residual activity, TLK1 ([1]; assay conc. 1.0E-07 M)	Residual activity, WNK3 ([2]; assay conc. 1.0E-06 M)	Residual activity, WNK3 ([2]; assay conc. 1.0E-07 M)	Residual activity, TYRO3 ([3]; assay conc. 1.0E-06 M)	Residual activity, TYRO3 ([3]; assay conc. 1.0E-07 M)	Residual activity ([4]; PRK2, 1.0E-06 M)	Residual activity ([4]; PRK2, 1.0E-07 M)	Residual activity, VEGF-R3 ([5]; assay conc. 1.0E-06 M)	Residual activity, VEGF-R3 ([5]; assay conc. 1.0E-07 M)	Residual activity ([6]; 1.0E-06 M)	Residual activity ([6]; 1.0E-07 M)	Residual activity, SGK2 ([7]; assay conc. 1.0E-06 M)	Residual activity, SGK2 ([7]; assay conc. 1.0E-07 M)
C#Cc1cc(Nc2ncnc3cc(I)ccc23)ccc1Cl [Compound 41]	100 % of control	110 % of control	115 % of control	118 % of control	91 % of control	100 % of control	88 % of control	85 % of control	119 % of control	121 % of control	84 % of control	82 % of control	86 % of control	101 % of control
C#Cc1cc(Nc2ncnc3cc(OC)c(OC)cc23)ccc1Cl [Compound 45]	108 % of control	112 % of control	105 % of control	124 % of control	58 % of control	93 % of control	95 % of control	92 % of control	112 % of control	120 % of control	87 % of control	90 % of control	98 % of control	94 % of control
